Results as given in US5580869A, “1N substituted pyrazino[2,3-c]-1,2,6-thiadiazine 2,2-dioxides” (Prodesfarma, S.A., priority 1992, dated 1996).
Like-named read-outs stand apart in the source and are kept apart here.

Tests used:
[1] = tested on: human platelets; experiment: In vitro inhibition of human platelet aggregation, Born's method; format: cell-based
Method: The platelet antiaggregation activity of the active products in the initial screening (Table 4) has been confirmed and extended by evaluating the capacity thereof to inhibit in vitro the aggregation of human platelets using Born's method. ADP (1 mcM), collagen (2 mcg/ml), arachidonic acid (1 mM), U-46619 (1,4 mcM) and IBOP (225 nM) were used as aggregation inducing agents. The results obtained (Table 5) show the capacity of the products tested to inhibit dose dependently the platelet aggregation induced by collagen, arachidonic acid, U-46619 and IBOP, probably through interaction with the platelet endoperoxide/thromboxane receptor. Therefore, said compounds might be potentially useful in the treatment of disorders in which the thromboxanes play a part, such as myocardial infarct, cerebrovascular diseases and asthmatic and/or inflammatory states.

[2] = tested on: platelet rich rabbit plasma; experiment: In vitro platelet antiaggregation activity, arachidonic acid induced, platelet rich plasma; format: cell-based; conditions: Oryctolagus cuniculus; for activity at 10 µg/mL: 10 mcg/ml, arachidonic acid 50 mcg/ml
Method: (§1) The platelet antiaggregation activity was determined in vitro using platelet rich rabbit plasma and arachidonic acid (50 mcg/ml) as aggregation inducing agent. The results are given for tracheal relaxation as percentage inhibition of the tracheal tone relative to the maximum relaxation induced by noradrenaline (0.3 mcg/ml) and for the platelet aggregation as a percentage of the maximum effect observed with the proaggregation agent.

[3] = tested on: histamine induced bronchospasm in anaesthetized guinea pig; experiment: In vivo bronchodilatory effect, histamine induced bronchospasm (Konzett and Rossler); conditions: area under the curve relative to theophylline
Method: Konzett and Rosslet's technique was used for evaluation, with the capacity of the tested products, when administered intraduodenally at dose levels of 25 and 100 mg/kg, to antagonize a histamine induced bronchospasm (7.5 mcg/ml) in anaesthetized guinea pig being determined. Theophylline (25 mg/kg, i.d.) was used as reference drug, with the areas under the curve defined by the bronchospasm inhibition percentages and the post-administration time being compared.

[4] = tested on: isolated guinea pig trachea; experiment: In vitro trachea relaxing activity (spontaneous tone in isolated trachea, method of Luduena); format: cell-based; conditions: Cavia porcellus, 30 mcg/ml, relative to maximum relaxation by noradrenaline 0.3 mcg/ml
Method: as §1

[5] = tested on: rats; experiment: Diuretic and saluretic activity (urine volume and electrolyte excretion over 6 h), technique of Lipschits et al.; format: in vivo; conditions: rat, 20 mg/kg po, (N) = not statistically significant vs control
Method: The synthesized compounds were, therefore, subjected a pharmacological screening to evaluate a possible diuretic and salt excreting activity. Thus, an acute dose of each of the products of synthesis (20 or 25 mg/kg) was administered to rats and the amount of urine and the excretion of electrolytes was measured, following the technique described by Lipschits et al., with certain modifications (J. Pharmacol. Exp.Ther. 1943-79; 97-110).
The volume (ml/kg/6 h), the pH and the excretion of sodium, potassium and chloride ions (mEq/kg/6 h) were determined on the urine quantitatively collected over 6 hours, using triamterene and hydrochlorothiazide as reference diuretics.

[6] = IBOP 225 nM, read-out: Concentration inhibiting > 60% platelet aggregation, IBOP
[7] = U-46619 1,4 mcM, read-out: Concentration inhibiting > 60% platelet aggregation, U-46619
[8] = arachidonic acid 1 mM, read-out: Concentration inhibiting > 60% platelet aggregation, arachidonic acid
[9] = collagen 2 mcg/ml, read-out: Concentration inhibiting > 60% platelet aggregation, collagen

SMILES | IC60 [1, 6] | IC60 [1, 7] | IC60 [1, 8] | IC60 [1, 9] | activity at 10 µg/mL [2] | Bronchodilatory activity (area ratio) ([3]; 25 mg/kg i.d.) | Bronchodilatory activity (area ratio) ([3]; 100 mg/kg i.d.) | activity at 30 µg/mL [4] | further results
CCN1c2nc(-c3ccccc3)c(-c3ccccc3)nc2C(N)=NS1(=O)=O [1-ethyl-6,7-diphenyl, 4-amino-1-ethyl-6,7-diphenylpyrazino[2,3-c]-1,2,6-thiadiazine 2,2-dioxide] | 3000 nM | 1000 nM | 30000 nM | 1000 nM | 100% |  |  |  | 
CCN1c2ncc(C)nc2C(N)=NS1(=O)=O [1-ethyl-6-methyl, 4-amino-1-ethyl-6-methylpyrazino[2,3-c]-1,2,6-thiadiazine 2,2-dioxide] |  |  |  |  |  | 0.8 | 1.3 | 67% | 
CCN1c2ncc(-c3ccccc3)nc2C(N)=NS1(=O)=O [1-ethyl-6-phenyl, 4-amino-1-ethyl-6-phenyl-pyrazino[2,3-c]-1,2,6-thiadiazine 2,2-dioxide] | 1000 nM | 10000 nM | 30000 nM | 1000 nM | 100% |  |  |  | 
CCN1c2nc(C)c(-c3ccccc3)nc2C(N)=NS1(=O)=O [1-ethyl-6-phenyl-7-methyl, 4-amino-1-ethyl-6-phenyl-7-methylpyrazino[2,3-c]-1,2,6-thiadiazine 2,2-dioxide] | 3000 nM | 3000 nM | 30000 nM | 1000 nM | 100% |  |  | 93% | response vs control in vivo at 20 mg/kg ([5]; read-out: Cl excretion, treated group/control group ratio): 123%; response vs control in vivo at 20 mg/kg ([5]; read-out: K excretion, treated group/control group ratio): 85%; response vs control in vivo at 20 mg/kg ([5]; read-out: Na excretion, treated group/control group ratio): 142%; response vs control in vivo at 20 mg/kg ([5]; read-out: Na/K): 165%; response vs control in vivo at 20 mg/kg ([5]; read-out: Volume urine, treated group/control group ratio): 121%
CCN1c2nc3c(nc2C(N)=NS1(=O)=O)CCCC3 [4-amino-1-ethyl-6,7,8,9-tetrahydro-1,2,6-thiadiazine[3,4-b]quinoxaline 2,2-dioxide] |  |  |  |  |  | 0.6 | 0.4 | 82% | 
CCN1c2nc(-c3ccccc3)c(Br)nc2C(N)=NS1(=O)=O [6-bromo-1-ethyl-7-phenyl, 4-amino-6-bromo-1-ethyl-7-phenylpyrazino[2,3-c]-1,2,6-thiadiazine 2,2-dioxide] |  |  |  |  | 100% |  |  | 63% | 
CC(=O)Oc1ccccc1C(=O)O [Aspirin, reference compound] |  |  |  |  |  |  |  |  | activity at 2.5 µg/mL ([2]; read-out: platelet antiaggregation activity (%)): 100%
Cn1c(=O)c2[nH]cnc2n(C)c1=O [Theophylline, reference compound] |  |  |  |  |  | 1 | 1 | 60% | 
